Laboratory results from patent publication US9475766B2, “Substituted aromatic sulfur compounds and methods of their use” (Cephalon, Inc., priority 2011, dated 2016).
Where a name gives a salt, the structure may show the parent alone.

Assays:
[1] = tested on: BxPC3 pancreatic cell line; experiment: Cell survival and adhesion assay (luciferase), BxPC3; format: cell-based; conditions: BXPC-3, 5 hours, BxPC3 cells overlayed onto human mesothelial cell monolayers, read-out: relative reduction in Luciferase activity, BxPC3 10 μM
Outline: (§1)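 Luciferase-expressing tumour cells (10^5) were overlaid on confluent human mesothelial cell monolayers together with compound or DMSO for 5 hours. Non-adherent cells were washed off; adherent, surviving cells were lysed, protein-normalised and quantified by firefly luciferase luminescence.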

[2] = tested on: HT29 colon cancer cell line; experiment: Cell survival and adhesion assay (luciferase), HT29; format: cell-based; conditions: HT-29, 5 hours, HT29 cells overlayed onto human mesothelial cell monolayers, read-out: relative reduction in Luciferase activity, HT29 10 μM
Description: (§2) SU86 is a pancreatic cancer cell line. HT29 is a colon cancer cell line. BxPC3 is a pancreatic cell line. A2780 is an ovarian cancer cell line.
(§3) BxPc-3 and Su.86.86 pancreatic and HT-29 colon and A2780 ovarian cancer cell lines were purchased from ATCC and cultured in DMEM supplemented with 10% fetal bovine serum, glutamine, penicillin, and streptomycin. All cells were cultured at 37° C. in a humidified incubator in a 5% CO2 atmosphere. The cancer cell lines were transduced with a retrovirus containing pLuc-puro, a constitutive luciferase reporter and selected in […] media. Transient transfection of a full-length human c-FLIP construct in the vector pcDNA3 was performed as previously described. Scaife et al. Cancer Research 2002, 62: 6870-78.
(§4) Pancreatic cancer cell cultures (BxPc-3 and Su.86.86) and colon cancer (HT-29) and ovarian cancer (A2780) cells that were stably transfected with a firefly luciferase construct were transiently suspended with trypsin-PBS. 10^5 cells were overlayed onto confluent monolayers of human mesothelial cells in 96-well plates while simultaneously adding various concentrations of compounds of the invention or DMSO for 5 hours. The non-adherent cells were carefully washed away from the wells twice with 100 μl/well of blocking buffer (1% BSA in PBS) and twice again with ice-cold PBS. Adherent and surviving cells were detected by luciferase activity in a luminometer as follows. The cells were lysed in 0.1% TritonX-100, 25 mM Gly-Gly (7.8), MgSO4, 4 mM EGTA, 1 mM DTT. The total protein concentration was normalized with lysis buffer. 50 μl of cell lysate was added per well of a 96-well microtiter plate. 50 μl of luciferin substrate (Promega) was added per well and then the light output determined in a luminometer.

[3] = tested on: A2780 ovarian cancer cell line; experiment: Cell survival and adhesion assay (luciferase), A2780; format: cell-based; conditions: 5 hours, A2780 cells overlayed onto human mesothelial cell monolayers, read-out: relative reduction in Luciferase activity, A2780 10 μM
Outline: as §1

[4] = tested on: SU86 pancreatic cancer cell line (Su.86.86); experiment: Cell survival and adhesion assay (luciferase), SU86; format: cell-based; conditions: 5 hours, SU86 cells overlayed onto human mesothelial cell monolayers, read-out: relative reduction in Luciferase activity, SU86 10 μM
Description: as §2, §3, §4

Molecule `CCOC(=O)/C=C/S(=O)(=O)c1ccc(C(C)(C)C)cc1` [Example 59, (E)-3-(4-tert-Butyl-benzenesulfonyl)-acrylic acid ethyl ester] has an inhibition at 10 µM [1] of 50 to 85%, an inhibition at 10 µM [2] of 10 to 50% and a melting point of 88 to 91 °C. The inhibition at 10 µM [3] was 50 to 85% and the inhibition at 10 µM [4] was 10 to 50%.

`C=C(c1ccccc1)S(=O)(=O)c1ccc(C(C)(C)C)cc1` [Example 58, 1-tert-Butyl-4-(1-phenyl-ethenesulfonyl)-benzene] gave an inhibition at 10 µM [1] of 50 to 85%, an inhibition at 10 µM [2] of 10 to 50% and a melting point of 99 °C. For the same molecule, the inhibition at 10 µM [3] was under 10% and the inhibition at 10 µM [4] was 10 to 50%.

`CC(C)(C(=O)NCc1ccc(-n2cccn2)cc1)c1ccc(S(=O)(=O)/C=C/C#N)cc1` (as salt: trifluoroacetic acid salt) [Example 21, 2-[4-((E)-2-Cyano-ethenesulfonyl)-phenyl]-N-(4-pyrazol-1-yl-benzyl)-isobutyramide] gave a melting point of 47 to 53 °C.

Work on `COc1ccc(NC(=O)C(C)(C)c2ccc(S(=O)(=O)/C=C/C#N)cc2)cc1` [Example 23, 2-[4-((E)-2-Cyano-ethenesulfonyl)-phenyl]-N-(4-methoxy-phenyl)-isobutyramide] yielded an inhibition at 10 µM [1] of 50 to 85%, a melting point of 123 to 126 °C and an inhibition at 10 µM [3] of over 85%. For the same molecule, the inhibition at 10 µM [4] was 50 to 85%.

Molecule `C/C=C/S(=O)(=O)c1ccc(C(C)(C)C)cc1` [Example 56, 1-tert-Butyl-4-[((E)-prop-1-ene)-1-sulfonyl]-benzene] has an inhibition at 10 µM [1] of under 10%, an inhibition at 10 µM [2] of under 10% and a melting point of 80 °C. The inhibition at 10 µM [3] was under 10% and the inhibition at 10 µM [4] was under 10%.

Work on `CC(C)(C(=O)N1CCc2ccccc2C1)c1ccc(S(=O)(=O)/C=C/C#N)cc1` [Example 20, (E)-3-{4-[2-(3,4-Dihydro-1H-isoquinolin-2-yl)-1,1-dimethyl-2-oxo-ethyl]-benzenesulfonyl}-acrylonitrile] yielded an inhibition at 10 µM [1] of over 85%, a melting point of 54 to 60 °C and an inhibition at 10 µM [3] of over 85%. The inhibition at 10 µM [4] was 50 to 85%.

Molecule `CC(C)(C(=O)NC1CCCCC1)c1ccc(S(=O)(=O)/C=C/C#N)cn1` [Example 86, 2-[5-((E)-2-Cyano-ethenesulfonyl)-pyridin-2-yl]-N-cyclohexyl-isobutyramide] has an inhibition at 10 µM [1] of 50 to 85%, an inhibition at 10 µM [2] of over 85% and an inhibition at 10 µM [3] of 10 to 50%. It also gave an inhibition at 10 µM [4] of 10 to 50%.

Molecule `CC(C)(c1ccc(S(=O)(=O)/C=C/C#N)cc1)c1nnc(-c2ccccc2)o1` [Example 72, (E)-3-{4-[1-Methyl-1-(5-phenyl-[1,3,4]oxadiazol-2-yl)-ethyl]-benzenesulfonyl}-acrylonitrile] has an inhibition at 10 µM [1] of 50 to 85%, an inhibition at 10 µM [2] of over 85% and an inhibition at 10 µM [3] of over 85%. The inhibition at 10 µM [4] was 50 to 85%.

Molecule `CC(C)(C)c1ccc(S(=O)(=O)/C=C/C(N)=O)cc1` [Example 55, (E)-3-(4-tert-Butyl-benzenesulfonyl)-acrylamide] has an inhibition at 10 µM [1] of 50 to 85%, an inhibition at 10 µM [2] of 10 to 50% and a melting point of 151 °C. The inhibition at 10 µM [3] was 10 to 50% and the inhibition at 10 µM [4] was 10 to 50%.

In the case of `CC(C)(C(=O)N1CCOCC1)c1ccc(S(=O)(=O)/C=C/C#N)cc1` [Example 3, (E)-3-[4-(1,1-Dimethyl-2-morpholin-4-yl-2-oxo-ethyl)-benzenesulfonyl]-acrylonitrile], the inhibition at 10 µM [1] is reported as 10 to 50%, the inhibition at 10 µM [2] is reported as under 10% and the inhibition at 10 µM [3] is reported as 10 to 50%. The inhibition at 10 µM [4] was under 10%.

For `CC(C)(C(=O)NCCO)c1ccc(S(=O)(=O)/C=C/C#N)cc1` [Example 4, 2-[4-((E)-2-Cyano-ethenesulfonyl)-phenyl]-N-(2-hydroxy-ethyl)-isobutyramide], the inhibition at 10 µM [1] was under 10%, the inhibition at 10 µM [2] was 10 to 50% and the inhibition at 10 µM [3] was under 10%. The inhibition at 10 µM [4] was under 10%.

`CC(C)(C)c1cc(S(=O)(=O)/C=C/C#N)ccc1OCC(=O)NCc1ccc(F)cc1` [Example 64, 2-[2-tert-Butyl-4-((E)-2-cyano-ethenesulfonyl)-phenoxy]-N-(4-fluoro-benzyl)-acetamide] gave an inhibition at 10 µM [1] of over 85%, an inhibition at 10 µM [2] of over 85% and an inhibition at 10 µM [3] of over 85%. For the same molecule, the inhibition at 10 µM [4] was 50 to 85%.

`CC(C)(C(=O)NC1CCOCC1)c1ccc(S(=O)(=O)/C=C/C#N)cc1` [Example 13, 2-[4-((E)-2-Cyano-ethenesulfonyl)-phenyl]-N-(tetrahydro-pyran-4-yl)-isobutyramide] showed an inhibition at 10 µM [1] of under 10%, an inhibition at 10 µM [2] of 10 to 50% and an inhibition at 10 µM [3] of under 10%. For the same molecule, the inhibition at 10 µM [4] was under 10%.

Work on `CC(C)(C(=O)Nc1ccccc1)c1ccc(S(=O)(=O)/C=C/C#N)cc1` [Example 5, 2-[4-((E)-2-Cyano-ethenesulfonyl)-phenyl]-N-phenyl-isobutyramide] yielded an inhibition at 10 µM [1] of 50 to 85%, an inhibition at 10 µM [2] of under 10% and an inhibition at 10 µM [3] of 50 to 85%. The inhibition at 10 µM [4] was 10 to 50%.

In the case of `CC(C)(C)c1cc(S(=O)(=O)/C=C/C#N)ccc1OCC(=O)O` [Example 61, [2-tert-Butyl-4-((E)-2-cyano-ethenesulfonyl)-phenoxy]-acetic acid], the inhibition at 10 µM [1] is reported as 10 to 50%, the inhibition at 10 µM [2] is reported as under 10% and the inhibition at 10 µM [3] is reported as under 10%. For the same molecule, the inhibition at 10 µM [4] was under 10%.

Molecule `CC(C)(C)c1ccc(S(=O)(=O)/C=C/c2ccccc2)cc1` [Example 57, 1-tert-Butyl-4-((E)-2-phenyl-ethenesulfonyl)-benzene] has an inhibition at 10 µM [1] of under 10%, an inhibition at 10 µM [2] of under 10% and a melting point of 95 °C. For the same molecule, the inhibition at 10 µM [3] was under 10% and the inhibition at 10 µM [4] was under 10%.

`CC(C)(C)c1cc(S(=O)(=O)/C=C/C#N)ccc1OCC(=O)NC1CCCCC1` [Example 63, 2-[2-tert-Butyl-4-((E)-2-cyano-ethenesulfonyl)-phenoxy]-N-cyclohexyl-acetamide] showed an inhibition at 10 µM [1] of over 85%, an inhibition at 10 µM [2] of over 85% and an inhibition at 10 µM [3] of over 85%. For the same molecule, the inhibition at 10 µM [4] was 50 to 85%.

Molecule `CC(C)(C(=O)NC1CCCCC1)c1ccc(S(=O)(=O)/C=C/C#N)cc1` [Example 12, 2-[4-((E)-2-Cyano-ethenesulfonyl)-phenyl]-N-cyclohexyl-isobutyramide] has an inhibition at 10 µM [1] of 50 to 85%, an inhibition at 10 µM [2] of under 10% and a melting point of 191 to 193 °C. It also gave an inhibition at 10 µM [3] of 50 to 85% and an inhibition at 10 µM [4] of 50 to 85%.

For `CC(C)(C(=O)NCc1ccccn1)c1ccc(S(=O)(=O)/C=C/C#N)cc1` [Example 7, 2-[4-((E)-2-Cyano-ethenesulfonyl)-phenyl]-N-pyridin-2-ylmethyl-isobutyramide], the inhibition at 10 µM [1] was 10 to 50%, the inhibition at 10 µM [2] was under 10% and the inhibition at 10 µM [3] was 10 to 50%. The inhibition at 10 µM [4] was 10 to 50%.

With `CN1CCN(C(=O)C(C)(C)c2ccc(S(=O)(=O)/C=C/C#N)cc2)CC1` [Example 9, (E)-3-{4-[1,1-Dimethyl-2-(4-methyl-piperazin-1-yl)-2-oxo-ethyl]-benzenesulfonyl}-acrylonitrile] the inhibition at 10 µM [1] was under 10%, the inhibition at 10 µM [2] was under 10% and the inhibition at 10 µM [3] was under 10%. It also gave an inhibition at 10 µM [4] of under 10%.
